Reference: US5250546A, “Amino-alcohol derivatives and processes for their preparation” (Nippon Chemiphar Co., Ltd., priority 1984, dated 1993)
Counter-ions that a name gives are not always drawn. Like-named read-outs stand apart in the source and are kept apart here.

Legend:
[1] = test system: anemic decerebrate rigidity (Wistar male rats); assay: Effects on anemic decerebrate rigidity (EMG of M. triceps brachii); format: in vivo; conditions: Rattus norvegicus, iv, 10 min, read-out: Suppression rate (rigidity, EMG pulse area)
Protocol: An anemic decerebrate rigidity sample was prepared principally in accordance with the procedure of Fukuda et al. [Japan. […] Wistar male rats (body weight: 270 to 350 g) were held on their backs and incised at their cervices under etherization. After the trachea and common carotid arteries were exposed, the trachea was cannulated and the bilateral common carotid arteries and esophagus were then double-ligated and cut. Thereafter, its occipital bone was exposed through which a circular hole was bored to double-ligate the centrally extending basilar artery. As each rat started coming out of anesthetization, its front limbs became rigid. Measurement was conducted by recording electromyographic (EMG) response from the muscle of the forelimb (M. triceps brachii) of the rat in the rigid state. The EMG pulses were converted to accumulated values every 10 seconds and recorded as a histogram on a recorder.
The effect of each test compound on the rigidity was evaluated in terms of the suppression rate. This rate was calculated first by determining the area of a decreased EMG pulse part on the histogram upon passage of 10 minutes after administration of a physiological saline solution of each test compound (3 mg/kg) through the femoral vein and then in accordance with the following equation.
A: EMG pulse area when no test compound was administered (control).

[2] = test system: glutamic acid at neuromuscular junctions of crayfish (opener muscles of the first walking legs); assay: Blocking effects against glutamic acid at neuromuscular junctions of crayfish (L-glutamic acid-induced depolarization); format: cell-based; conditions: 5 min; suppression rate of depolarization by L-glutamic acid (10^-4 M); 5-minute pretreatment with test compound 2×10^-4 M
Text: The opener muscles of the first walking legs of crayfish were used as experimental materials. The neuromuscular sample was held in a bath in which a physiological solution [composition (mM): NaCl (195), CaCl2 (18), KCl (5.4), tris-maleate buffer (pH 7.5; 10), glucose (11)] for use with the crayfish was perfused at room temperature and at a constant flow rate. A glass micro-electrode filled with a 3M-KCl solution was inserted in a central part of the muscle fiber to intracellularly record changes in the potential of the muscular cell membrane.
The blocking effect of each test compound against glutamic acid was evaluated in terms of the suppression rate to depolarization which was induced by bath-applying L-glutamic acid (10^-4 M) in a 5-minute pretreatment with a solution of the test compound (2×10^-4 M).

[3] = Acute toxicity, up-and-down method; conditions: mouse, in vivo; iv (caudal vein), ddN male mice
Protocol: Using ddN male mice, the acute toxicity level of each test compound was determined in accordance with an up-and-down method. Some of the test compounds used were dissolved in physiological saline and administered through the caudal vein.

[4] = 3 mg/kg through the femoral vein, 10 minutes after administration

C[C@H](NCCN1CCCC1)[C@H](O)c1ccccc1 (racemic) [Comparative compound 2, (1RS,2SR)-1-phenyl-2-(2-pyrrolidinoethylamino)propan-1-ol dihydrochloride, reference compound]
inhibition in vivo at 3 mg/kg [1]: 2.2%

C[C@H](NCCN1CCOCC1)[C@H](O)c1ccccc1 (racemic) [Comparative compound 3, (1RS,2SR)-2-(2-morpholinoethylamino)-1-phenylpropan-1-ol dihydrochloride, reference compound]
inhibition in vivo at 3 mg/kg [1]: 1%

C[C@H](NCCN(C)C)[C@H](O)c1ccccc1 (racemic) [Comparative compound 4, (1RS,2SR)-2-(2-dimethylaminoethylamino)-1-phenylpropan-1-ol dihydrochloride, reference compound]
inhibition in vivo at 3 mg/kg [1]: 1.1%

CCCC[C@H](NCCCN1CCCCC1)[C@H](O)c1ccccc1.Cl.Cl (racemic) [Compound 3, (1RS,2SR)-1-phenyl-2-(3-piperidinopropylamino)hexan-1-ol dihydrochloride]
inhibition at 200 µM [2]: 99%
inhibition in vivo at 3 mg/kg [1, 4]: 17.5%
LD50 [3]: 19.2 mg/kg

CCCCC[C@H](NCCCN1CCCCC1)[C@H](O)c1ccccc1.Cl.Cl (racemic) [Compound 5, (1RS,2SR)-1-phenyl-2-(3-piperidinopropylamino)heptan-1-ol dihydrochloride]
inhibition at 200 µM [2]: 100%
inhibition in vivo at 3 mg/kg [1, 4]: 18.5%
LD50 [3]: 22.1 mg/kg

CCCCC[C@@H](NCCCN1CCCCC1)[C@H](O)c1ccccc1 (racemic) [Compound 6, (1RS,2RS)-1-phenyl-2-(3-piperidinopropylamino)heptan-1-ol dihydrochloride]
inhibition at 200 µM [2]: 100%

CCCCCC[C@H](NCCCN1CCCCC1)[C@H](O)c1ccccc1 (racemic) [Compound 7, (1RS,2SR)-1-phenyl-2-(3-piperidinopropylamino)octan-1-ol dihydrochloride]
inhibition at 200 µM [2]: 98%

CCCCCCCC[C@H](NCCCN1CCCCC1)[C@H](O)c1ccccc1 (racemic) [Compound 11, (1RS,2SR)-1-phenyl-2-(3-piperidinopropylamino)decan-1-ol dihydrochloride]
inhibition at 200 µM [2]: 100%

CC(C)C[C@H](NCCCN1CCCCC1)[C@H](O)c1ccccc1.Cl.Cl (racemic) [Compound 15, (1RS,2SR)-4-methyl-1-phenyl-2-(3-piperidinopropylamino)pentan-1-ol dihydrochloride]
inhibition at 200 µM [2]: 100%
LD50 [3]: 23.6 mg/kg

CC(C)C[C@@H](NCCCN1CCCCC1)[C@H](O)c1ccccc1.Cl.Cl (racemic) [Compound 16, (1RS,2RS)-4-methyl-1-phenyl-2-(3-piperidinopropylamino)pentan-1-ol dihydrochloride]
inhibition at 200 µM [2]: 95%
LD50 [3]: 28.8 mg/kg

CC(C)CC[C@H](NCCCN1CCCCC1)[C@H](O)c1ccccc1.Cl.Cl (racemic) [Compound 21, (1RS,2SR)-5-methyl-1-phenyl-2-(3-piperidinopropylamino)hexan-1-ol dihydrochloride]
inhibition at 200 µM [2]: 100%
inhibition in vivo at 3 mg/kg [1, 4]: 65.9%
LD50 [3]: 13.6 mg/kg

CC(C)CC[C@@H](NCCCN1CCCCC1)[C@H](O)c1ccccc1.Cl.Cl (racemic) [Compound 22, (1RS,2RS)-5-methyl-1-phenyl-2-(3-piperidinopropylamino)hexan-1-ol dihydrochloride]
inhibition at 200 µM [2]: 100%
inhibition in vivo at 3 mg/kg [1, 4]: 42.3%
LD50 [3]: 19 mg/kg

CC(C)C[C@H](NCCCN1CCCC1)[C@H](O)c1ccccc1 (racemic) [Compound 23, (1RS,2SR)-4-methyl-1-phenyl-2-(3-pyrrolidinopropylamino)pentan-1-ol dihydrochloride]
inhibition at 200 µM [2]: 97%

CC(C)C[C@H](NCCCN1CCOCC1)[C@H](O)c1ccccc1 (racemic) [Compound 25, (1RS,2SR)-4-methyl-2-(3-morpholinopropylamino)-1-phenylpentan-1-ol dihydrochloride]
inhibition at 200 µM [2]: 90%

CC(C)C[C@H](NCCCN(C)C)[C@H](O)c1ccccc1 (racemic) [Compound 27, (1RS,2SR)-2-(3-dimethylaminopropylamino)-4-methyl-1-phenylpentan-1-ol dihydrochloride]
inhibition at 200 µM [2]: 95%

CC(C)C[C@H](NCCN1CCCCC1)[C@H](O)c1ccccc1 (racemic) [Compound 29, (1RS,2SR)-4-methyl-1-phenyl-2-(2-piperidinoethylamino)pentan-1-ol dihydrochloride]
inhibition at 200 µM [2]: 93%

CC(C)C[C@H](NCCN1CCCC1)[C@H](O)c1ccccc1 (racemic) [Compound 31, (1RS,2SR)-4-methyl-1-phenyl-2-(2-pyrrolidinoethylamino)pentan-1-ol dihydrochloride]
inhibition at 200 µM [2]: 91%

CC(C)CC[C@H](NCCCN1CCCC1)[C@H](O)c1ccccc1.Cl.Cl (racemic) [Compound 35, (1RS,2SR)-5-methyl-1-phenyl-2-(3-pyrrolidinopropylamino)hexan-1-ol dihydrochloride]
inhibition at 200 µM [2]: 100%
inhibition in vivo at 3 mg/kg [1, 4]: 21.6%
LD50 [3]: 26.7 mg/kg

CC(C)CC[C@H](NCCCN1CCOCC1)[C@H](O)c1ccccc1 (racemic) [Compound 37, (1RS,2SR)-5-methyl-2-(3-morpholinopropylamino)-1-phenylhexan-1-ol dihydrochloride]
inhibition at 200 µM [2]: 99%

CC(C)CC[C@H](NCCCN(C)C)[C@H](O)c1ccccc1 (racemic) [Compound 39, (1RS,2SR)-2-(3-dimethylaminopropylamino)-5-methyl-1-phenylhexan-1-ol dihydrochloride]
inhibition at 200 µM [2]: 100%

Cc1ccccc1[C@@H](O)[C@H](CC(C)C)NCCCN1CCCCC1 (racemic) [Compound 47, (1RS,2SR)-4-methyl-1-(2-methylphenyl)-2-(3-piperidinopropylamino)pentan-1-ol dihydrochloride]
inhibition at 200 µM [2]: 100%

Cc1cccc([C@@H](O)[C@H](CC(C)C)NCCCN2CCCCC2)c1 (racemic) [Compound 49, (1RS,2SR)-4-methyl-1-(3-methylphenyl)-2-(3-piperidinopropylamino)pentan-1-ol dihydrochloride]
inhibition at 200 µM [2]: 100%

Cc1ccc([C@@H](O)[C@H](CC(C)C)NCCCN2CCCCC2)cc1 (racemic) [Compound 51, (1RS,2SR)-4-methyl-1-(4-methylphenyl)-2-(3-piperidinopropylamino)pentan-1-ol dihydrochloride]
inhibition at 200 µM [2]: 100%

COc1ccc([C@@H](O)[C@H](CC(C)C)NCCCN2CCCCC2)cc1 (racemic) [Compound 53, (1RS,2SR)-1-(4-methoxyphenyl)-4-methyl-2-(3-piperidinopropylamino)pentan-1-ol dihydrochloride]
inhibition at 200 µM [2]: 91%

CC(C)C[C@H](NCCCN1CCCCC1)[C@H](O)c1ccc(F)cc1 (racemic) [Compound 55, (1RS,2SR)-1-(4-fluorophenyl)-4-methyl-2-(3-piperidinopropylamino)pentan-1-ol dihydrochloride]
inhibition at 200 µM [2]: 99%

CC(C)C[C@H](NCCCN1CCCCC1)[C@H](O)c1ccc(Cl)cc1 (racemic) [Compound 57, (1RS,2SR)-1-(4-chlorophenyl)-4-methyl-2-(3-piperidinopropylamino)pentan-1-ol dihydrochloride]
inhibition at 200 µM [2]: 99%

CC(C)C[C@@H](NCCCN1CCCCC1)[C@H](O)c1ccc(Cl)cc1 (racemic) [Compound 58, (1RS,2RS)-1-(4-chlorophenyl)-4-methyl-2-(3-piperidinopropylamino)pentan-1-ol dihydrochloride]
inhibition at 200 µM [2]: 97%

CO[C@H](c1ccccc1)[C@H](CCC(C)C)NCCCN1CCCCC1 (racemic) [Compound 59, (1RS,2SR)-5-methyl-1-phenyl-2-(3-piperidinopropylamino)hexan-1-ol methylether dihydrochloride]
inhibition at 200 µM [2]: 97%

CCN(CCCN1CCCCC1)[C@@H](CCC(C)C)[C@H](O)c1ccccc1 (racemic) [Compound 65, (1RS,2SR)-2-[ethyl-(3-piperidinopropyl)amino]-5-methyl-1-phenylhexan-1-ol dihydrochloride]
inhibition at 200 µM [2]: 99%

Cc1ccc([C@@H](O)[C@@H](CC(C)C)NCCCN2CCCCC2)cc1 (relative stereo) [Compound 52, (1RS,2RS)-4-methyl-1-(4-methylphenyl)-2-(3-piperidinopropylamino)pentan-1-ol dihyrochloride]
inhibition at 200 µM [2]: 93%

Cc1ccc(C(=O)C(C)CN2CCCCC2)cc1 (stereo not shown) [Comparative compound 5, tolperisone hydrochloride, reference compound]
inhibition in vivo at 3 mg/kg [1, 4]: 4.8%

CC(C)C[C@H](NCCCN1CCCCC1)[C@H](O)c1ccccc1.Cl.Cl [Compound 17, (1R,2S)-4-methyl-1-phenyl-2-(3-piperidinopropylamino)pentan-1-ol dihydrochloride]
inhibition at 200 µM [2]: 100%
LD50 [3]: 15.4 mg/kg

CC(C)C[C@@H](NCCCN1CCCCC1)[C@@H](O)c1ccccc1 [Compound 18, (1S,2R)-4-methyl-1-phenyl-2-(3-piperidinopropylamino)pentan-1-ol dihydrochloride]
inhibition at 200 µM [2]: 97%

CC(C)C[C@H](NCCCN1CCCCC1)[C@@H](O)c1ccccc1.Cl.Cl [Compound 19, (1S,2S)-4-methyl-1-phenyl-2-(3-piperidinopropylamino)pentan-1-ol dihydrochloride]
inhibition at 200 µM [2]: 100%
LD50 [3]: 28.4 mg/kg

CC(C)C[C@@H](NCCCN1CCCCC1)[C@H](O)c1ccccc1 [Compound 20, (1R,2R)-4-methyl-1-phenyl-2-(3-piperidinopropylamino)pentan-1-ol dihydrochloride]
inhibition at 200 µM [2]: 98%
